The text below walks through data of ChEMBL document CHEMBL4732087, “Structure-activity relationship (SAR) studies of N-(3-methylpyridin-2-yl)-4-(pyridin-2-yl)thiazol-2-amine (SRI-22819) as NF-ҡB activators for the treatment of ALS” (Eur J Med Chem, 2021).

Series [1] in a line: Kinetic solubility of compound at pH 7.4 by shake flask method. It counts as physicochemical. Conditions: buffer, read-out: Kinetic_solubility.
Series [2] is described as follows: Drug concentration in CD1 mouse brain at 1 mg/kg, iv measured at […] by LC-MS/MS analysis. It counts as ADME, organism-based. Particulars: time 0.25 hrs, read-out: Ct.
Series [3] can be described thus: Drug concentration in CD1 mouse brain at 1 mg/kg, iv measured at 0.5 hrs by LC-MS/MS analysis. It counts as ADME, organism-based. Conditions: read-out: Ct.
Series [4] is described as follows: Drug concentration in CD1 mouse plasma at 1 mg/kg, iv measured at […] by LC-MS/MS analysis. It counts as ADME, organism-based. Conditions: time 0.25 hrs.
Series [5] can be described thus: Drug concentration in CD1 mouse plasma at 1 mg/kg, iv measured at 0.5 hrs by LC-MS/MS analysis. It counts as ADME, organism-based.
Series [6] in a line: Ratio of drug concentration in brain to plasma in CD1 mouse at 1 mg/kg, iv measured at […] by LC-MS/MS analysis. It counts as ADME, organism-based. Conditions: time 0.25 hrs.
Series [7] is described as follows: Ratio of drug concentration in brain to plasma in CD1 mouse at 1 mg/kg, iv measured at 0.5 hrs by LC-MS/MS analysis. It counts as ADME, organism-based.
Series [8] can be described thus: Cmax in CD1 mouse at 5 mg/kg, po by LC-MS/MS analysis. It counts as ADME, organism-based. Details: route oral, dose 5 mg/kg. Conditions: in vivo.
Series [9] can be described thus: Oral bioavailability in CD1 mouse at 5 mg/kg by LC-MS/MS analysis. Conditions: in vivo. It counts as ADME, organism-based.

Values after ≈ are worked out from the molar mass of the structure shown.

Turning to `Fc1cccnc1Nc1nc(-c2ccccn2)cs1`, in series [1], the solubility kinetic is 45.4 µM (≈ 12.4 µg/mL).
Take `O=C(O)c1cccc(-c2noc(-c3ccccc3F)n2)c1`: in series [1], the solubility kinetic stood at 70.5 µM (≈ 20 µg/mL).
Broadly, the Kp is the ratio of the level in a tissue or fluid to that in plasma or blood. On to `NCc1cccc(-c2cnc(Nc3ccc(F)cc3)o2)c1`, for which the solubility kinetic in series [1] is 50.8 µM (≈ 14.4 µg/mL). Besides, the figures for the concentration at […] in series [2] and in series [4] were 473 ng/g and 32.8 ng/mL, respectively. The concentration at 0.5 h turned out to be 297 ng/g in series [3] and 21 ng/mL in series [5]. Besides, in series [6], the Kp at […] came out at 14.5. The Kp at 0.5 h in series [7] was determined as 14.3.
With `COC(=O)c1ccc(-c2cnc(Nc3ccccc3F)o2)cc1`, in series [1], the solubility kinetic was under 1 µM.
A word on the Cmax: it is the peak of the concentration-time curve. Usually bioavailability stands for dose-corrected exposure relative to a reference, in per cent. The molecule `O=C(O)c1cccc(-c2cnc(Nc3ccccc3F)o2)c1` came in with a Cmax in series [8] of 92 ng/mL. In series [9], this molecule had a bioavailability of 15.6%.
For the molecule `O=C(O)c1cccc(-c2cnc(-c3ccccc3F)o2)c1`, the solubility kinetic in [1] was found to be 69.5 µM (≈ 19.7 µg/mL).
Turning to `COC(=O)c1cccc(-c2cnc(Nc3ccc(F)cc3)o2)c1`, in [1], the solubility kinetic was under 1 µM.
Consider `CN(c1ccc(F)cc1)c1ncc(-c2cccc(C(=O)O)c2)o1`, for which the solubility kinetic in series [1] was determined as 277 µM (≈ 86.5 µg/mL). Moreover, the concentration at […] in [2] came out at 16.4 ng/g; in series [4], 788 ng/mL. Also, the concentration at 0.5 h is 7.27 ng/g in series [3] and 529 ng/mL in series [5]. Also, the Kp at […] in [6] was 0.0213. In [7], the Kp at 0.5 h was determined as 0.0137.
Regarding `O=C(O)c1cccc(-c2csc(Nc3ccccc3)n2)c1`, in series [1], the solubility kinetic was determined as 70.2 µM (≈ 20.8 µg/mL).
Consider `Fc1cccc(-c2csc(Nc3ccccc3F)n2)c1`, for which the solubility kinetic in series [1] is under 1 µM.
In the case of `COc1cccnc1Nc1nc(-c2ccccn2)cs1`, the solubility kinetic in [1] was 1.2 µM (≈ 0.341 µg/mL).
On the same count and under the same terms, as for `O=C(O)c1cccc(-c2cnc(Nc3ccc(F)cc3F)o2)c1`, the figure is 69 µM (≈ 21.8 µg/mL).
The same measure, in the same setting: for `Fc1ccccc1Nc1nc(-c2ccccc2)cs1` the value was under 1 µM; for `O=C(O)c1cccc(-c2nc(Nc3ccccc3F)cs2)c1`, over 100 µM.
The same measure, in the same setting: as for `O=C(O)c1cccc(-c2csc(Nc3ccc(F)cc3)n2)c1`, the figure is 77.7 µM (≈ 24.4 µg/mL).
In the case of `CNC(=O)c1cccc(-c2cnc(Nc3ccc(F)cc3)o2)c1`, in [1], the solubility kinetic turned out to be 3.1 µM (≈ 0.965 µg/mL).
With `Nc1cccc(-c2cnc(Nc3ccc(F)cc3)o2)c1`, in series [1], the solubility kinetic is 15.2 µM (≈ 4.09 µg/mL).
Same read-out and setting: as for `OCc1cccc(-c2csc(Nc3ccccc3F)n2)c1`, the figure is 30.9 µM (≈ 9.28 µg/mL).
`Cc1noc(-c2cccc(-c3cnc(Nc4ccc(F)cc4)o3)c2)n1`: the concentration at […] turned out to be 821 ng/g in series [2] and 119 ng/mL in [4]. The concentration at 0.5 h in [3] amounted to 357 ng/g; in series [5], 74.4 ng/mL. The Kp at […] in [6] came out at 6.93. Further, the Kp at 0.5 h in series [7] was 4.81.
Turning to `CC(=O)Nc1cccc(-c2cnc(Nc3ccc(F)cc3)o2)c1`, in series [1], the solubility kinetic amounted to 5 µM (≈ 1.56 µg/mL).
As for `O=C(O)c1cccc(-c2csc(Nc3ccccc3F)n2)c1`, the Cmax in series [8] worked out at 101 ng/mL. The bioavailability in series [9] worked out at 26.6%. In [1], the solubility kinetic was 80.9 µM (≈ 25.4 µg/mL).
For `CNC(=O)c1cccc(-c2cnc(N(C)c3ccc(F)cc3)o2)c1`, the solubility kinetic in series [1] worked out at 60.4 µM (≈ 19.7 µg/mL). For the same molecule, the figures for the concentration at […] in series [2] and in series [4] were 200 ng/g and 164 ng/mL, respectively. The results for the concentration at 0.5 h in series [3] and in series [5] were 30.9 ng/g and 31.1 ng/mL, respectively. For the same molecule, the Kp at […] in series [6] was 1.21. In addition, in [7], the Kp at 0.5 h stood at 1.02.
Turning to `O=C(O)c1ccc(-c2csc(-c3ccccc3F)n2)cc1`, in series [1], the solubility kinetic turned out to be 38.4 µM (≈ 11.5 µg/mL).
On the same count and under the same terms, for `Cc1cccnc1Nc1ncc(-c2ccccn2)o1` the value was 72.5 µM (≈ 18.3 µg/mL); for `O=C(O)c1cccc(-c2csc(-c3ccccc3F)n2)c1`, 55.2 µM (≈ 16.5 µg/mL); for `COC(=O)c1cccc(-c2cnc(Nc3cccc(F)c3)o2)c1`, under 1 µM.
As for `COc1cccc(-c2csc(Nc3ccccc3F)n2)c1`, the solubility kinetic in [1] is 49.3 µM (≈ 14.8 µg/mL).
